pIC50: −log10 of the molar value. The source made the active and inactive calls. The calls are words filed in the database; no cut-off is given here.
Tests used:
[1] = Drug uptake in Xenopus laevis oocytes at 0.5 mM incubated for 10 mins by HPLC analysis; type: ADME, cell-based; details: oocyte, 500 µM
[2] = target: T1, Solute carrier family 15 member 1 (Homo sapiens, UniProt P46059); experiment: Substrate activity at PEPT1 (unknown origin) expressed in MDCK cells assessed as inhibition of gly-sar uptake incubated for 10 mins by HPLC/MS/MS analysis; type: cell-based
T1 sequence (P46059 whole entry): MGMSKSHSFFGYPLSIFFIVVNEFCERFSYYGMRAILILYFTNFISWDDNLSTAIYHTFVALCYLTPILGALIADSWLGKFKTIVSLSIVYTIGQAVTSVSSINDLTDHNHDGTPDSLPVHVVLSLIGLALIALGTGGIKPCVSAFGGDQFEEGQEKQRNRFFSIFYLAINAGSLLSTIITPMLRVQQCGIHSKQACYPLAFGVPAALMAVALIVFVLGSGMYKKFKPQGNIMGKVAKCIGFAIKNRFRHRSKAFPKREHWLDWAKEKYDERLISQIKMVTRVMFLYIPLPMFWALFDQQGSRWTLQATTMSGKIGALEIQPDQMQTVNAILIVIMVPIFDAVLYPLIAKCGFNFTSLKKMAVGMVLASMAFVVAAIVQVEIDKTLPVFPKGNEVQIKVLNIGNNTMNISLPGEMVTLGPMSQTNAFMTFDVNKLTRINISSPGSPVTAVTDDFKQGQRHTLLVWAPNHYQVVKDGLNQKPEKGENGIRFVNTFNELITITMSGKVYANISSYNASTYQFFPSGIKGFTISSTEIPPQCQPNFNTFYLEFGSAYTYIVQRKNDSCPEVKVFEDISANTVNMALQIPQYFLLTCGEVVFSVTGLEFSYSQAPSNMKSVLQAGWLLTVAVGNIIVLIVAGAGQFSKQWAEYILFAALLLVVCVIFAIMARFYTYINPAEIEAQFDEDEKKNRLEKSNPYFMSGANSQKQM

[3] = Selectivity ratio of substrate activity at SLC6A14 (unknown origin) expressed in Xenopus laevis oocytes assessed as ABT0+ mediated drug uptake to drug uptake in Xenopus laevis oocytes; set-up: species or system Oocyte
[4] = Selectivity ratio of substrate activity at PEPT1 (unknown origin) expressed in MDCK cells assessed as PEPT1 mediated drug uptake to drug uptake in MDCK cells
[5] = target: T2, Sodium- and chloride-dependent neutral and basic amino acid transporter B(0+) (Homo sapiens) (UniProt Q9UN76); experiment: Substrate activity at SLC6A14 (unknown origin) expressed in Xenopus laevis oocytes assessed as inhibition of drug uptake at 0.5 mM incubated for 10 mins in presence of glycine by HPLC analysis relative to control; type: cell-based; details: Oocyte
T2 sequence (whole entry): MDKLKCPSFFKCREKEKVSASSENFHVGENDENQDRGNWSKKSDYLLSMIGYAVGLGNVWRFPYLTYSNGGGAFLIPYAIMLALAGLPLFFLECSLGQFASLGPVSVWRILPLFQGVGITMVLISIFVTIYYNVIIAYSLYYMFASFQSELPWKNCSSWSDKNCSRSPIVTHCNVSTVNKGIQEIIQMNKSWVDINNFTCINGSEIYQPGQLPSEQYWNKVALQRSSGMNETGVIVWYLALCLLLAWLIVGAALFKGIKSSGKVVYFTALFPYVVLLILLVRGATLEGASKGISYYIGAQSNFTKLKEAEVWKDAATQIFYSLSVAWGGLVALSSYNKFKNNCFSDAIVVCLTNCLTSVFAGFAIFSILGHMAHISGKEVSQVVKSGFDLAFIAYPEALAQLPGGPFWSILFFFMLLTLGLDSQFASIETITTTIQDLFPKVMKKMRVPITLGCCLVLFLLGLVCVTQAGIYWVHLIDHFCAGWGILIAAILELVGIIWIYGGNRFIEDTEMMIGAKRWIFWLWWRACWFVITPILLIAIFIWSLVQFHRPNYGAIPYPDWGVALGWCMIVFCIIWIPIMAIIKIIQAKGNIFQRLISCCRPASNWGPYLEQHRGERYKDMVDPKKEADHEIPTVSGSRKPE

[6] = target: T2, Sodium- and chloride-dependent neutral and basic amino acid transporter B(0+) (Homo sapiens); experiment: Substrate activity at SLC6A14 (unknown origin) expressed in Xenopus laevis oocytes assessed as increase in ABT0+ mediated drug uptake at 1 mM in presence of Na+ ion by HPLC analysis; type: cell-based; details: Oocyte
[7] = Half life in rat plasma at 200 uM measured up to 120 mins by HPLC-MS/MS analysis; type: ADME, cell-free
ZR-75-1 = experiment: Potency index, ratio of FUdR GI50 to test compound GI50 for growth inhibition of human ZR-75-1 cells; type: functional
MIA PaCa-2 [8] = experiment: Potency index, ratio of FUdR GI50 to test compound GI50 for growth inhibition of human MIA-PaCa-2 cells; type: functional
MIA PaCa-2 [9] = experiment: Antitumour activity against human MIA-PaCa-2 cells xenografted in NOD SCID nude mouse assessed as tumour inhibition at 90 mg/kg, iv administered for 20 days measured every 2 day by caliper method relative to control; type: functional; details: MIA PaCa-2, iv, 480 h, time 20 day
[10] = Cmax in NOD SCID nude mouse plasma xenografted with ZR-75-1 cells assessed as floxuridine; 5-fluoro-2-deoxyuridine concentration at 90 mg/kg, iv measured up to 24 hrs by HPLC-MS/MS analysis; type: ADME, organism-based; set-up: route intravenous, dose 90 mg/kg, time <=24; details: in vivo
[11] = AUC (0 to t) in NOD SCID nude mouse plasma xenografted with ZR-75-1 cells assessed as fluorouracil AUC at 90 mg/kg, iv measured up to 24 hrs by HPLC-MS/MS analysis; type: ADME, organism-based; set-up: route intravenous, dose 90 mg/kg, time <=24; details: in vivo
[12] = AUC (0 to t) in NOD SCID nude mouse plasma xenografted with ZR-75-1 cells assessed as floxuridine; 5-fluoro-2-deoxyuridine AUC at 90 mg/kg, iv measured up to 24 hrs by HPLC-MS/MS analysis; type: ADME, organism-based; set-up: route intravenous, dose 90 mg/kg, time <=24; details: in vivo
[13] = Ratio of AUC (0 to t) in NOD SCID nude mouse plasma xenografted with ZR-75-1 cells to AUC (0 to t) in NOD SCID mouse tumour xenografted with ZR-75-1 cells; type: ADME, cell-free, Tumor/Plasma

Drug uptake [1]: 0.32 nmol/mg/min
pIC50 [2]: 1.99
inhibition [5]: 50%
Activity [6]: Active
half-life at 200 µM [7]: 2.49 h
Cmax [10]: 145.9 ng/mL
AUCt [11]: 588.2 ng·h/mL
AUC [12]: 1172.9 ng·h/mL
Ratio [13]: 3.9
SMILES: N[C@@H](CC(=O)OC[C@H]1O[C@@H](n2cc(F)c(=O)[nH]c2=O)C[C@@H]1O)C(=O)O
Ratio [3]: 9.28
Ratio [4]: 1
RatioGI50 (ZR-75-1): 7
RatioGI50 (MIA PaCa-2 [8]): 7
inhibition in vivo at 90 mg/kg (MIA PaCa-2 [9]): 62.4%

From ChEMBL document CHEMBL4665787, “Bifunctional and Unusual Amino Acid β- or γ-Ester Prodrugs of Nucleoside Analogues for Improved Affinity to ATB and Enhanced Metabolic Stability: An Application to Floxuridine” (J Med Chem, 2020)
